In patent publication US10617557B2, “Combined drug delivery methods and apparatus” (ForSight Vision4, Inc., priority 2010, dated 2020):
In brackets after ≈: the same amount, converted by molar mass. Like-named read-outs stand apart in the source and are kept apart here.

How the values were obtained:
[1] = representative of a small molecule, input of the calculation; cited from earlier work
[2] = system: COX; settings: cited from earlier work
[3] = vitreous, input of the calculation; cited from earlier work
[4] = Calculated release of COX inhibitors from the therapeutic device into the vitreous; design: species or system human; settings: from half-life 3 hr
[5] = rabbit and monkey, cited from earlier work
[6] = Diffusion coefficients of proteins and small molecules; type: physicochemical; settings: simulation parameter, Tables 4A and 4E
Description: If the reservoir solution is aqueous or has a viscosity similar to water, the value for the diffusion coefficient of the therapeutic agent (TA) in water at the temperature of interest may be used.
Small molecules have a diffusion coefficient similar to fluorescein (MW=330, D=4.8 to 6 e-6 cm^2/s from Stay, M S et al. Pharm Res 2003, 20(1), pp. 96-102). For example, the small molecule may comprise a glucocorticoid such as triamcinolone acetonide having a molecular weight of about 435.

[7] = human eye; listed as ranibizumab; cited from earlier work
[8] = system: Grade IV choroidal neovascularization (CNV) lesions; settings: intravitreal injection, all doses tested, cynomolgus monkeys; cited from earlier work
[9] = cited from earlier work
[10] = system: VEGF-induced cell proliferation, or receptor binding; settings: depending on the target assay; cited from earlier work

## O=C(c1ccccc1)c1ccc2n1CCC2C(=O)O (stereo not drawn) [ketorolac]
[1]
  Diffusion coeff: 5.0E−06 cm2/s
[2]
  IC50 (ug/ml) (Inhibitory Level)*: 0.007 µg/mL (≈ 0.0274 µM)
[3]
  Half-life: 3 h
[4]
  Rate constant, k: 5.545 day⁻¹

## ranibizumab [Lucentis™]
[5]
  Half-life in the vitreous: two to four
[5]; listed as ranibizumab
  Half-life in the vitreous: approximately 3 days
[6]
  Diffusion coeff: 1.0E−06 cm2/s
[7]
  Half-life in the vitreous: 9 days
[8]
  Development of Grade IV CNV lesions: completely inhibited

## Nc1c(CC(=O)O)cccc1C(=O)c1ccc(Br)cc1 [bromfenac]
[2]
  IC50 (ug/ml) (Inhibitory Level)*: 0.0025 µg/mL (≈ 0.00748 µM)

## Cc1ccc(-c2cc(C(F)(F)F)nn2-c2ccc(S(N)(=O)=O)cc2)cc1 [celecoxib]
[9]
  Solubility in water: approximately 3 ug/ml

## C[C@]12C=CC(=O)C=C1CC[C@H]1[C@@H]3C[C@@H](O)[C@](O)(C(=O)CO)[C@@]3(C)C[C@H](O)[C@@]12F [triamcinolone]
[10]
  IC50: ~1.5 nM
